The numbers were not newly measured in US20140010866A1, “METHODS AND SYSTEMS FOR TREATMENT OF MIGRAINES AND OTHER INDICATIONS” (Strategic Science & Technologies, LLC, priority 2010, published 2014), which cites them from elsewhere.

The pKa is the negative logarithm of the acid dissociation constant.

Take `CC(C)[C@H]1C(=O)N2CCC[C@H]2[C@]2(O)O[C@@](C)(NC(=O)[C@@H]3C=C4c5cccc6[nH]cc(c56)C[C@H]4N(C)C3)C(=O)N12` [ergovaline]: the pKa is recorded as 11.64. As to `CNS(=O)(=O)CCc1ccc2[nH]cc(C3CCN(C)CC3)c2c1` [naratriptan], the pKa was 17.11. Take `CN(C)CCc1c[nH]c2ccc(C[C@H]3COC(=O)N3)cc12` [zolmitriptan]: the pKa is reported as 17.15. `CN[C@@H]1CCc2[nH]c3ccc(C(N)=O)cc3c2C1` [frovatriptan]: the pKa was 17.27.

Turning to `CN(C)CCc1c[nH]c2ccc(CS(=O)(=O)N3CCCC3)cc12` [almotriptan], the pKa is 8.77. For the compound `CC(C)C[C@H]1C(=O)N2CCC[C@H]2[C@]2(O)O[C@](NC(=O)[C@@H]3C=C4c5cccc6[nH]c(Br)c(c56)C[C@H]4N(C)C3)(C(C)C)C(=O)N12` [bromocriptine], the pKa is given as 11.13.
